19 compounds from patent US20240150293A1, “SPIROCYCLOHEXANE DERIVATIVES, PHARMACEUTICAL COMPOSITIONS CONTAINING THEM AND THEIR USES AS ANTI-APOPTOTIC INHIBITORS” (LES LABORATOIRES SERVIER, priority 2021, published 2024) can be followed below.

pIC50, pKi: −log10 of the molar value. Like-named read-outs stand apart in the source and are kept apart here.

Assay [1] has as its target Cy5-labelled Mcl1 (amino acids 171-321) C286S protein (UniProtKB Q07820) (Homo sapiens (Human), UniProt Q07820, C286S). Put plainly: Inhibition of Mcl-1 by the fluorescence quenching assay (Example A, Method B). It counts as binding. In a few lines:
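Cy5-labelled Mcl1 171-321 C286S (1 nM) quenched by TQ5WS-labelled PUMA peptide (10, 20 or 400 nM); displacement raises fluorescence (Ex 620/Em 680 nm). Buffer 10 mM HEPES, 150 mM NaCl, 0.05% Tween 20, pH 7.4, 5% DMSO; 2 h at room temperature, 11-point curves, IC50 converted to Ki (cKi/eKi).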

Assay [2] has as its system H929 multiple myeloma tumor line. As to the kind of experiment: In vitro cytotoxicity, MTT assay (Example B, Method A). The class given is cell-based. The following applies: H929 cells, 48 hours exposure, read-out: C50. On the procedure:
The cytotoxicity studies were carried out on the H929 multiple myeloma tumor line.
The cells are distributed onto microplates and exposed to the test compounds for 48 hours. The cell viability is then quantified by a colorimetric assay, the Microculture Tetrazolium Assay (Carmichael et al, Cancer Res. 1987, 47, 939-942).
The results are expressed in C50 which means concentration corresponding to […] of effect/inhibition.

Sequence of Cy5-labelled Mcl1 (amino acids 171-321) C286S protein (Q07820 171-321 C286S): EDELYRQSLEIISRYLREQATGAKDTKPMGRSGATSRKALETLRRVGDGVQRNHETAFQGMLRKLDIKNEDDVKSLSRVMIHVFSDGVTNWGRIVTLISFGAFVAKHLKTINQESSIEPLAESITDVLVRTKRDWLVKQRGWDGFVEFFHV

`C[C@@H]1CCCc2nccc(OCC(CF)CC3=Cc4ccccc4[C@]34CC[C@@](Nc3cccc(Cl)c3)(C(=O)O)CC4)c21` (single isomer, unassigned) [Example 515]: the pKi in assay [1] was 7.58. In addition, the pIC50 in assay [2] was 5.62.
The corresponding values for `C[C@@H]1CCCc2nccc(OCC(CC3=Cc4ccccc4[C@]34CC[C@@](Nc3cccc(Cl)c3)(C(=O)O)CC4)C(F)F)c21` (single isomer, unassigned) [Example 516] are 7.55 and 5.41.
Turning to `C[C@@H]1CCCc2nccc(OCC(CC3=Cc4ccccc4[C@]34CC[C@@](Nc3cccc(Cl)c3)(C(=O)O)CC4)C(F)F)c21` (single isomer, unassigned) [Example 517], the pKi in assay [1] was 8.30. Further, in assay [2], the pIC50 is 6.26.
The corresponding values for `C[C@@H]1CCCc2nccc(OCC(CC3Cc4ccccc4[C@]34CC[C@@](Nc3cccc(Cl)c3)(C(=O)O)CC4)C(F)F)c21` (single isomer, unassigned) [Example 518] are 5.90 and 4.92.
The corresponding values for `C[C@@H]1CCCc2nccc(OCC(CC3Cc4ccccc4[C@]34CC[C@@](Nc3cccc(Cl)c3)(C(=O)O)CC4)C(F)F)c21` (single isomer, unassigned) [Example 519] are 9.04 and 6.69.
As to `C[C@@H]1CCCc2nccc(OCC(CC3Cc4ccccc4[C@]34CC[C@@](Nc3cccc(Cl)c3)(C(=O)O)CC4)C(F)F)c21` (single isomer, unassigned) [Example 520], in assay [1], the pKi is 7.04. Also, the pIC50 in assay [2] was 4.98.
`C[C@@H]1CCCc2nccc(OCC(CC3Cc4ccccc4[C@]34CC[C@@](Nc3cccc(Cl)c3)(C(=O)O)CC4)C(F)F)c21` (single isomer, unassigned) [Example 521]: in assay [1], the pKi is 7.49. The pIC50 in assay [2] is 6.01.
Take `O=C(O)[C@]1(Nc2cccc(Cl)c2)CC[C@]2(CC1)C(CC(COc1ccnc3ccsc13)Cc1ccccc1)=Cc1ccccc12` (single isomer, unassigned) [Example 559, (1r,4r)-2′-{2-benzyl-3-[(thieno[3,2-b]pyridin-7-yl)oxy]propyl}-4-(3-chloroanilino)spiro[cyclohexane-1,1′-indene]-4-carboxylic acid]: the pKi in assay [1] is 7.14. Moreover, in assay [2] (Homo sapiens, NCI-H929, 48 h), the pIC50 is 4.52.
Turning to `O=C(O)[C@]1(Nc2cccc(Cl)c2)CC[C@@]2(CC1)c1ccccc1CC2CC(COc1ccnc2ccsc12)Cc1ccccc1` (single isomer, unassigned) [Example 560, (1r,4r)-2′-{2-benzyl-3-[(thieno[3,2-b]pyridin-7-yl)oxy]propyl}-4-(3-chloroanilino)-2′,3′-dihydrospiro[cyclohexane-1,1′-indene]-4-carboxylic acid], in assay [1], the pKi is 7.04. Further, in assay [2], the pIC50 is 4.90.
The corresponding values for `O=C(O)[C@]1(Nc2cccc(Cl)c2)CC[C@@]2(CC1)c1ccccc1CC2CC(COc1ccnc2ccsc12)Cc1ccccc1` (single isomer, unassigned) [Example 561, (1r,4r)-2′-{2-benzyl-3-[(thieno[3,2-b]pyridin-7-yl)oxy]propyl}-4-(3-chloroanilino)-2′,3′-dihydrospiro[cyclohexane-1,1′-indene]-4-carboxylic acid] are 7.24 and 4.91.
The corresponding values for `O=C(O)[C@]1(Nc2cccc(Cl)c2)CC[C@@]2(CC1)c1ccccc1CC2CC(COc1ccnc2ccsc12)Cc1ccccc1` (single isomer, unassigned) [Example 562, (1r,4r)-2′-{2-benzyl-3-[(thieno[3,2-b]pyridin-7-yl)oxy]propyl}-4-(3-chloroanilino)-2′,3′-dihydrospiro[cyclohexane-1,1′-indene]-4-carboxylic acid] are 7.09 and 4.75.
For `O=C(O)[C@]1(Nc2cccc(Cl)c2)CC[C@@]2(CC1)c1ccccc1CC2CC(COc1ccnc2ccsc12)Cc1ccccc1` (single isomer, unassigned) [Example 563, (1r,4r)-2′-{2-benzyl-3-[(thieno[3,2-b]pyridin-7-yl)oxy]propyl}-4-(3-chloroanilino)-2′,3′-dihydrospiro[cyclohexane-1,1′-indene]-4-carboxylic acid] the same measures were 7.36 and 5.40.
Regarding `CC(CC1Cc2ccccc2[C@]12CC[C@@](Nc1cccc(Cl)c1)(C(=O)O)CC2)C1CCC(=O)CC1` (single isomer, unassigned) [Example 570, (1r,4r)-4-(3-chloroanilino)-2′-[2-(4-oxocyclohexyl)propyl]-2′,3′-dihydrospiro[cyclohexane-1,1′-indene]-4-carboxylic acid], the pKi in assay [1] was 6.44. The pIC50 in assay [2] (Homo sapiens, NCI-H929, 48 h) is 4.52.
Regarding `CC(CC1Cc2ccccc2[C@]12CC[C@@](Nc1cccc(Cl)c1)(C(=O)O)CC2)C1CCC(=O)CC1` (single isomer, unassigned) [Example 571, (1r,4r)-4-(3-chloroanilino)-2′-[2-(4-oxocyclohexyl)propyl]-2′,3′-dihydrospiro[cyclohexane-1,1′-indene]-4-carboxylic acid], in assay [1], the pKi is 6.97. Moreover, the pIC50 in assay [2] is 4.52.
The corresponding values for `CC(CC1Cc2ccccc2[C@]12CC[C@@](Nc1cccc(Cl)c1)(C(=O)O)CC2)C1CCC(=O)CC1` (single isomer, unassigned) [Example 572, (1r,4r)-4-(3-chloroanilino)-2′-[2-(4-oxocyclohexyl)propyl]-2′,3′-dihydrospiro[cyclohexane-1,1′-indene]-4-carboxylic acid] are 7.07 and 4.52.
Turning to `CC(CC1Cc2ccccc2[C@]12CC[C@@](Nc1cccc(Cl)c1)(C(=O)O)CC2)C1CCC(=O)CC1` (single isomer, unassigned) [Example 573, (1r,4r)-4-(3-chloroanilino)-2′-[2-(4-oxocyclohexyl)propyl]-2′,3′-dihydrospiro[cyclohexane-1,1′-indene]-4-carboxylic acid], in assay [1], the pKi was 6.09. The pIC50 in assay [2] is 4.52.
As to `C[C@@H](COc1ccnc2c1CCC2O)C[C@H]1Cc2ccccc2[C@]12CC[C@@](Nc1cccc(Cl)c1)(C(=O)O)CC2` (single isomer, unassigned) [Example 608], the pKi in assay [1] is 8.79. In addition, the pIC50 in assay [2] (Homo sapiens, NCI-H929, 48 h) is 6.10.
Take `C[C@@H](COc1ccnc2c1CCC2O)C[C@H]1Cc2ccccc2[C@]12CC[C@@](Nc1cccc(Cl)c1)(C(=O)O)CC2` (single isomer, unassigned) [Example 609]: in assay [1], the pKi was 8.58. Also, the pIC50 in assay [2] is 6.20.
Turning to `C[C@@H](COc1ccnc2c1[C@H]1CCC[C@H]1C2)C[C@H]1Cc2ccccc2[C@]12CC[C@@](Nc1cccc(Cl)c1)(C(=O)O)CC2` (single isomer, unassigned) [Example 620, (1r,2′S,4S)-4-(3-chloroanilino)-2′-[(2R)-3-{[(4bR*,7aR*)-4b,5,6,7,7a,8-hexahydropentaleno[2,1-b]pyridin-4-yl]oxy}-2-methylpropyl]-2′,3′-dihydrospiro[cyclohexane-1,1′-indene]-4-carboxylic acid], the pKi in assay [1] was 7.90. Also, in assay [2], the pIC50 is 6.05.
